# Legend:
# Assay type in all cases: cell-based
# Mer = Mer (Homo sapiens (Human), UniProt Q12866); assay: Mer autophosphorylation ELISA in transient transfected 293A cells; details: cellular, MERTK-transfected 293A cells, phospho-Mer ELISA
# Method: 293A cells (Thermo Fisher #R70507) were seeded at 1.5×10^6 cells/well onto 100 mm dish (Greiner #664169), in DMEM (Thermo Fisher #11995-040) containing 10% FBS (Thermo Fisher #26140-079), 1% MEM NEAA (Thermo Fisher #11140-050), 1% GlutaMax (Thermo Fisher #35050-061), and 1% Penicillin Streptomycin (Thermo Fisher #15140-122). 293A cells were incubated at 37° C., 5% CO2 for 24 h and then transfected with 6 μg MERTK DNA (Genecopoeia #EX-Z8208-M02) using TransIT LT1 transfection reagent (Mirus-Bio #MIR2305). After 24 h incubation, the transfected 293A cells were seeded at 1×10^5 cells/well onto 96-well plates (Corning #3904) in DMEM growth medium overnight. Test compounds were serially diluted to produce an 8-point dose curve in fresh serum-free medium to a final concentration of 0.3% DMSO (vehicle) and added to the cells and incubated for 1 h. Cells were then immediately lysed with 150 μL of cold 1× lysis buffer [20 mM Tris, 137 mM sodium chloride, 2 mM EDTA, 10% glycerol, 1% NP-40 alternative, 1 mM activated sodium orthovanadate, 1 mM PefaBloc SC (Sigma-Aldrich #11429868001), protease/phosphatase inhibitor tablet (Thermo Fisher #A32959)]. Lysates were clarified by centrifugation and 50 μL/well added into the human phospho-Mer DuoSet IC ELISA (R&D Systems #DYC2579-2). Assay was performed according to manufacturer's instructions and sample phospho-Mer concentrations were extrapolated using human phospho-Mer control (R&D Systems #841793) as a standard. Positive control wells (100% activity) contained DMSO-treated cell lysates. Negative control wells (0% activity) contained reference inhibitor-treated cell lysates. IC50 values were calculated by nonlinear regression analysis using a 4-parameter logistic curve fit in ActivityBase XE (IDBS).
# AXL = AXL (Homo sapiens (Human), UniProt P30530); assay: AXL autophosphorylation ELISA in A-172 cells; details: cellular, Gas6-stimulated, phospho-AXL ELISA
# Method: A-172 glioblastoma cells (ATCC #CRL-1620) were seeded at 2.5×10^5 cells/well onto 24-well plates (Greiner #662165), in […] (Thermo Fisher #11995-040) containing 10% FBS (Thermo Fisher #26140-079), […] (Thermo Fisher #11140-050), […] (Thermo Fisher #35050-061), and 1% Penicillin Streptomycin (Thermo Fisher #15140-122). A-172 cells were incubated at 37° C., […] for 24 hand then starved for 24 h in serum-free medium. Test compounds were serially diluted to produce an 8-point dose curve in fresh serum-free medium to a final concentration of 0.3% DMSO (vehicle) and added to the cells and incubated for 1 h. Cells were then stimulated with 1 μg/mL recombinant human Gas6 (R&D Systems #885-GSB-500) for 15 min, washed with cold PBS, and immediately lysed with 150 μL of cold 1× lysis buffer [20 mM Tris, 137 mM sodium chloride, 2 mM EDTA, 10% glycerol, 1% NP-40 alternative, 1 mM activated sodium orthovanadate, 1 mM PefaBloc SC (Sigma-Aldrich #11429868001), protease/phosphatase inhibitor tablet (Thermo Fisher #A32959)]. Lysates were collected and 100 μL/well added into the human phospho-AXL DuoSet IC ELISA (R&D Systems #DYC2228-2). Assay was performed according to manufacturer's instructions and sample phospho-AXL concentrations were extrapolated using human phospho-AXL control (R&D Systems #841645) as a standard. Positive control wells (100% activity) contained Gas6-stimulated, DMSO-treated cell lysates. Negative control wells (0% activity) contained Gas6-stimulated, reference inhibitor-treated cell lysates. IC50 values were calculated by nonlinear regression analysis using a 4-parameter logistic curve fit in ActivityBase XE (IDBS).
# KDR = KDR (Homo sapiens (Human), UniProt P35968); assay: KDR autophosphorylation ELISA in HUVEC cells; details: cellular, VEGF165-stimulated, phospho-KDR ELISA
# Method: Human umbilical vein endothelial cells or HUVEC (Lonza #C2519A) were seeded at 2×10^4 cells/well onto 96-well plates (Corning #3904), in EGM-2 growth medium (Lonza #CC-3162) containing 1% Penicillin Streptomycin (Thermo Fisher #15140-122). HUVEC cells were incubated at 37° C., 5% CO2 for 24 h and then starved for 24 h in serum-free EBM-2 basal medium (Lonza #CC-3156) containing 1% Penicillin Streptomycin. Test compounds were serially diluted to produce an 8-point dose curve in fresh serum-free medium to a final concentration of 0.3% DMSO (vehicle) and added to the cells and incubated for 1 h. Cells were then stimulated with 100 ng/mL recombinant human VEGF165 (R&D Systems #293-VE-500) for 5 min, washed with cold PBS, and immediately lysed with 130 μL of cold 1× lysis buffer [20 mM Tris, 137 mM sodium chloride, 2 mM EDTA, 10% glycerol, 1% NP-40 alternative, 1 mM activated sodium orthovanadate, 1 mM PefaBloc SC (Sigma-Aldrich #11429868001), protease/phosphatase inhibitor tablet (Thermo Fisher #A32959)]. Lysates were collected and 100 μL/well added into the human phospho-KDR DuoSet IC ELISA (R&D Systems #DYC1766-2). Assay was performed according to manufacturer's instructions and sample phospho-KDR concentrations were extrapolated using human phospho-KDR control (R&D Systems #841421) as a standard. Positive control wells (100% activity) contained VEGF165-stimulated, DMSO-treated cell lysates. Negative control wells (0% activity) contained non-stimulated cell lysates. IC50 values were calculated by nonlinear regression analysis using a 4-parameter logistic curve fit in ActivityBase XE (IDBS).
# Met = Met (Homo sapiens (Human), UniProt P08581); assay: Met autophosphorylation ELISA in PC-3 cells; details: cellular, HGF-stimulated, phospho-Met ELISA, read-out: c-Met IC50
# Method: PC-3 prostate cancer cells (ATCC #CRL-1435) were seeded at 4×10^4 cells/well onto 24-well plates (Greiner #662165), in DMEM (Thermo Fisher #11995-040) containing 10% FBS (Thermo Fisher #26140-079), 1% MEM NEAA (Thermo Fisher #11140-050), 1% GlutaMax (Thermo Fisher #35050-061), and 1% Penicillin Streptomycin (Thermo Fisher #15140-122). PC-3 cells were incubated at 37° C., 5% CO2 for 24 h and then starved for 3 h in serum-free medium. Test compounds were serially diluted to produce an 8-point dose curve in fresh serum-free medium to a final concentration of 0.3% DMSO (vehicle) and added to the cells and incubated for 1 h. Cells were then stimulated with 100 ng/mL recombinant human HGF (R&D Systems #294-HG-250) for 10 min, washed with cold PBS, and immediately lysed with 130 μL of cold 1× lysis buffer [20 mM Tris, 137 mM sodium chloride, 2 mM EDTA, 10% glycerol, 1% NP-40 alternative, 1 mM activated sodium orthovanadate, 1 mM PefaBloc SC (Sigma-Aldrich #11429868001), and protease/phosphatase inhibitor tablet (Thermo Fisher #A32959)]. Lysates were clarified by centrifugation and 100 μL/well added into the PathScan phospho-Met (panTyr) Sandwich ELISA (Cell Signaling Technology #7333). Assay was performed according to manufacturer's instructions. Positive control wells (100% activity) contained HGF-stimulated, DMSO-treated cell lysates. Negative control wells (0% activity) contained HGF-stimulated, reference inhibitor-treated cell lysates. IC50 values were calculated by nonlinear regression analysis using a 4-parameter logistic curve fit in ActivityBase XE (IDBS).
# Chain of AXL (P30530 26-894): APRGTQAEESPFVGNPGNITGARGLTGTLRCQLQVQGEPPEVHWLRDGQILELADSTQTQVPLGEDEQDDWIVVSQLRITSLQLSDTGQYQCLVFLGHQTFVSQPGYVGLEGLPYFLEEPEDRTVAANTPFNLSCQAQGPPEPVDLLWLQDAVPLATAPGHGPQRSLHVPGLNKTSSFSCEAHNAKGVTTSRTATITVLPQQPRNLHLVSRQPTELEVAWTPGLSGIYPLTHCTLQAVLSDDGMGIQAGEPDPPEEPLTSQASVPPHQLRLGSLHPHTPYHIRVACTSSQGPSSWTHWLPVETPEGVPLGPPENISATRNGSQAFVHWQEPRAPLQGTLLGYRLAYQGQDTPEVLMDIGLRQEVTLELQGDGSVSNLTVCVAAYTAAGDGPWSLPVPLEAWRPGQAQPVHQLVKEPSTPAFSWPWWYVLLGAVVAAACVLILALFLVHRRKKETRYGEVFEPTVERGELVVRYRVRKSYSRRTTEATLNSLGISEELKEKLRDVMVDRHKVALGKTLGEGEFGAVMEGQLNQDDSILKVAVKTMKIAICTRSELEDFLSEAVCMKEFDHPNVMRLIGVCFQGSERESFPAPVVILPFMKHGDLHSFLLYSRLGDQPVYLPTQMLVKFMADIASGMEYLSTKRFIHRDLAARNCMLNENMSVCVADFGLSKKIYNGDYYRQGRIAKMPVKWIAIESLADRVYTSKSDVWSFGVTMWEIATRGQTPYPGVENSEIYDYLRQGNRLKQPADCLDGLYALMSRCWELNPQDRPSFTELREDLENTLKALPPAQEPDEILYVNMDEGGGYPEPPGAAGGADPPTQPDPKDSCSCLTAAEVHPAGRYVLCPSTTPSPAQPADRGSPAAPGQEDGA
# Chain of Met (P08581 25-1390): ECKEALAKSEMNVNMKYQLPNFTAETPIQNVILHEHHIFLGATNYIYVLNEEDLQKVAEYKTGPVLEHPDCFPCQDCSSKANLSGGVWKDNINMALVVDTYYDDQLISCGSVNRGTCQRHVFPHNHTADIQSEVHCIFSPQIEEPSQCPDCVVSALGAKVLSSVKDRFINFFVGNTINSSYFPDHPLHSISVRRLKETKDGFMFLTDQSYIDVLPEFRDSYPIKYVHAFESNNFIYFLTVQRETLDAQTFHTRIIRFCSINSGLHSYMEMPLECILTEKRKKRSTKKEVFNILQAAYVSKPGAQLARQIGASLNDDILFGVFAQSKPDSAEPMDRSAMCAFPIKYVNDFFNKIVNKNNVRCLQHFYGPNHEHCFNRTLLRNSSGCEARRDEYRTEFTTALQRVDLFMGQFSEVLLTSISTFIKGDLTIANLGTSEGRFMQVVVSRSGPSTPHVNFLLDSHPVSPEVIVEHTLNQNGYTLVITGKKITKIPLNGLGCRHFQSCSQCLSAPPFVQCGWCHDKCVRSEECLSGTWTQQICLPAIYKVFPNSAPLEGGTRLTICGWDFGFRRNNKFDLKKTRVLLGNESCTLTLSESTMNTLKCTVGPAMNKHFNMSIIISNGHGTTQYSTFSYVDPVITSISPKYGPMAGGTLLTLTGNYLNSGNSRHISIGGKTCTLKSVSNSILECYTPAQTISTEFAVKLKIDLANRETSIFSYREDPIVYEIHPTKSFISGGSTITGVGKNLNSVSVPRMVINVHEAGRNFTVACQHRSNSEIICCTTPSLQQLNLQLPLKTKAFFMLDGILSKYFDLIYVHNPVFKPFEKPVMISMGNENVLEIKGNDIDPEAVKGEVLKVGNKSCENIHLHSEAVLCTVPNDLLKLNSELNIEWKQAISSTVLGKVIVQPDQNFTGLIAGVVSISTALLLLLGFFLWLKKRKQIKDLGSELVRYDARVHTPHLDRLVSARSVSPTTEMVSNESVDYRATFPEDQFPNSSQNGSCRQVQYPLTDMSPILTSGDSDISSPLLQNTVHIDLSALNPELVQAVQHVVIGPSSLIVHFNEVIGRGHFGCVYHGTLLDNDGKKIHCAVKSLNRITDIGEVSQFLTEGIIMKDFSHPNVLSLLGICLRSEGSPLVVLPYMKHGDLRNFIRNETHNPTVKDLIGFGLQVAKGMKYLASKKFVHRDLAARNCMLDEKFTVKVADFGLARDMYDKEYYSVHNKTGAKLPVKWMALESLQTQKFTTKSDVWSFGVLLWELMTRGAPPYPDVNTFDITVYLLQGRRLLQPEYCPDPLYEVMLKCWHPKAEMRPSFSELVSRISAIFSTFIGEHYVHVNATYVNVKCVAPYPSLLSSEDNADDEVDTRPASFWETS
# Chain of KDR (P35968 20-1356): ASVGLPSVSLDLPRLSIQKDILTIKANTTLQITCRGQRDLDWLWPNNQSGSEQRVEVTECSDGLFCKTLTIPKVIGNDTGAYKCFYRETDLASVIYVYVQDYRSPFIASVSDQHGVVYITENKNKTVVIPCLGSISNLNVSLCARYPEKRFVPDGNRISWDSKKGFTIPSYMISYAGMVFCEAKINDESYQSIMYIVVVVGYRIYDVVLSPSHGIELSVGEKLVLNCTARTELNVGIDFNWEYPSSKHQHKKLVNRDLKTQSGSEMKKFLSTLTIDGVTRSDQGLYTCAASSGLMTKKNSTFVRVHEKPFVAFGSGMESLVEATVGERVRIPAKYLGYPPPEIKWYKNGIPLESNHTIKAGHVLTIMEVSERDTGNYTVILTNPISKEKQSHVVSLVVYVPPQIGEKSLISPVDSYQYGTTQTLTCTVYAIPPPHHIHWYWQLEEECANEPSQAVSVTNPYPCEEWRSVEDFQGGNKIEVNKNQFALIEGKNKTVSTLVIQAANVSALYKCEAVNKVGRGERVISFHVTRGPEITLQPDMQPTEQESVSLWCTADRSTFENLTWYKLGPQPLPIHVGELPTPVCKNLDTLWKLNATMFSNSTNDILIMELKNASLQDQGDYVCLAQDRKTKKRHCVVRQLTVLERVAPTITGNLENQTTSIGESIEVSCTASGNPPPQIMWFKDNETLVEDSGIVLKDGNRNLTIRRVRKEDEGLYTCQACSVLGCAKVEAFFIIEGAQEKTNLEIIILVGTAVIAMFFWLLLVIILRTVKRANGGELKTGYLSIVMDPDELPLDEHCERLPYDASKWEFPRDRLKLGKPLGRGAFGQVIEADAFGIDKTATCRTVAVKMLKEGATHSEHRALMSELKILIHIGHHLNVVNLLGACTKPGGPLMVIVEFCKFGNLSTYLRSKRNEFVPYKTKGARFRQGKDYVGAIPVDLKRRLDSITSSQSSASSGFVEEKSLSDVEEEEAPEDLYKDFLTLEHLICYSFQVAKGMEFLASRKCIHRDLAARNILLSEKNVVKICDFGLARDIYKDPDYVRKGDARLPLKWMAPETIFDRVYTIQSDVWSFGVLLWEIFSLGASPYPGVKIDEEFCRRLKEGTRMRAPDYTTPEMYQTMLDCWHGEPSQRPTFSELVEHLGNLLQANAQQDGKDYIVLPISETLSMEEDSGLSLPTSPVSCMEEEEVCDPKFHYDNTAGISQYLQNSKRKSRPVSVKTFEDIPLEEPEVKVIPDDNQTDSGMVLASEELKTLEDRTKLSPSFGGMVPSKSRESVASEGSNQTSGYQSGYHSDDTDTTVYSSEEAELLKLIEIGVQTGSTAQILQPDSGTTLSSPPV
# Chain of Mer (Q12866 21-999): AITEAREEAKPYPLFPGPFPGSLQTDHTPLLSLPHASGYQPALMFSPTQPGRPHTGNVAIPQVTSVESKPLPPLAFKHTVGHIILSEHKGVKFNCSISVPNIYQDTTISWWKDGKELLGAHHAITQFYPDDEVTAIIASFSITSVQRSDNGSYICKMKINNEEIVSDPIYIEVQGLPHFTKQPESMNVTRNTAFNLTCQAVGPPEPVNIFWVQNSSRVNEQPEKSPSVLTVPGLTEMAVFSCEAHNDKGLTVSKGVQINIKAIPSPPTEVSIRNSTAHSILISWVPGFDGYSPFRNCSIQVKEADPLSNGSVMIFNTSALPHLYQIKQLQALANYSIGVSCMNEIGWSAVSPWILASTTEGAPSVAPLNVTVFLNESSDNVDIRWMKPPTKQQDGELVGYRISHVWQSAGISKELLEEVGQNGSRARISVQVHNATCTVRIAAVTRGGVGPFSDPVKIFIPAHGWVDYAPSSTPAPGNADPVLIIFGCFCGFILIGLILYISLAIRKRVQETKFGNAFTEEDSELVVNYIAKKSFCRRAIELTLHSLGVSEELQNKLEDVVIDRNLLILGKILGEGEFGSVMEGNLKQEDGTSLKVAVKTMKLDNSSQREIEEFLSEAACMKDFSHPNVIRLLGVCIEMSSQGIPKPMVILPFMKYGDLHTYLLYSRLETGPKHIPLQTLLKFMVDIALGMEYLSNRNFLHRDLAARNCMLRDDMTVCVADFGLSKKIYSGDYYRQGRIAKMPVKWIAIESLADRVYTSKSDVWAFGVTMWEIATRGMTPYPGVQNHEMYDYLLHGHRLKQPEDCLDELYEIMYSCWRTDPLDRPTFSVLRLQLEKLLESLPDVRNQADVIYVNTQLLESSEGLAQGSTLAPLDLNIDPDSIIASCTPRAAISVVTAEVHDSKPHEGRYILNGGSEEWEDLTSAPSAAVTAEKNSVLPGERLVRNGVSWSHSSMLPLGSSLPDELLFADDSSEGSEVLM
Structure (SMILES),IC50 (Mer) [nM],IC50 (AXL) [nM],IC50 (KDR) [nM],IC50 (Met) [nM]
"CCNC(=O)c1cc2c(Oc3ncc(NC(=O)C4(C(=O)Nc5ccc(F)cc5)CC4)cc3F)ccnc2cc1OC [Compound 23, 1-N′-[6-[6-(Ethylcarbamoyl)-7-methoxyquinolin-4-yl]oxy-5-fluoropyridin-3-yl]-1-N-(4-fluorophenyl)cyclopropane-1,1-dicarboxamide]",10 to 100,10 to 100,> 300,10 to 100
"CNC(=O)c1cc2c(Oc3ncc(NC(=O)C4(C(=O)Nc5ccc(F)cc5)CC4)cc3Cl)ccnc2cc1OCCO [Compound 37, 1-N′-[5-Chloro-6-[7-(2-hydroxyethoxy)-6-(methylcarbamoyl)quinolin-4-yl]oxypyridin-3-yl]-1-N-(4-fluorophenyl)cyclopropane-1,1-dicarboxamide]",100 to 300,10 to 100,> 300,10 to 100
"NC(=O)c1cc2c(Oc3ncc(NC(=O)C4(C(=O)Nc5ccc(F)cc5)CC4)cc3Cl)ccnc2cc1OCCO [Compound 38, 1-N′-[6-[6-Carbamoyl-7-(2-hydroxyethoxy)quinolin-4-yl]oxy-5-chloropyridin-3-yl]-1-N-(4-fluorophenyl)cyclopropane-1,1-dicarboxamide]",10 to 100,10 to 100,> 300,10 to 100
"NC(=O)c1cc2c(Oc3ncc(NC(=O)C4(C(=O)Nc5ccc(F)cc5)CC4)cc3F)ccnc2cc1OCCO [Compound 39, 1-N′-[6-[6-Carbamoyl-7-(2-hydroxyethoxy)quinolin-4-yl]oxy-5-fluoropyridin-3-yl]-1-N-(4-fluorophenyl)cyclopropane-1,1-dicarboxamide]",100 to 300,10 to 100,> 300,10 to 100
"CNC(=O)c1cc2c(Oc3ncc(NC(=O)C4(C(=O)Nc5ccc(F)cc5)CC4)cc3Cl)ccnc2cc1OCC(C)O (centres unmarked) [Compound 50, 1-N′-[5-Chloro-6-[7-(2-hydroxypropoxy)-6-(methylcarbamoyl)-quinolin-4-yl]oxypyridin-3-yl]-1-N-(4-fluorophenyl)cyclopropane-1,1-dicarboxamide]",10 to 100,10 to 100,> 300,10 to 100
"CC(O)COc1cc2nccc(Oc3ncc(NC(=O)C4(C(=O)Nc5ccc(F)cc5)CC4)cc3Cl)c2cc1C(N)=O (centres unmarked) [Compound 51, 1-N′-[6-[6-Carbamoyl-7-(2-hydroxypropoxy)quinolin-4-yl]oxy-5-chloropyridin-3-yl]-1-N-(4-fluorophenyl)cyclopropane-1,1-dicarboxamide]",10 to 100,10 to 100,> 300,10 to 100
"COc1cc2nccc(Oc3ncc(NC(=O)C4(C(=O)Nc5ccc(F)cc5)CC4)cc3Cl)c2cc1-c1ncco1 [Compound 64, 1-N′-[5-Chloro-6-[7-methoxy-6-(1,3-oxazol-2-yl)quinolin-4-yl]oxypyridin-3-yl]-1-N-(4-fluorophenyl)cyclopropane-1,1-dicarboxamide]",10 to 100,≤ 10,> 300,10 to 100
"COc1cc2nccc(Oc3ncc(NC(=O)C4(C(=O)Nc5ccc(F)cc5)CC4)cc3F)c2cc1-c1nnco1 [Compound 67, 1-N′-[5-Fluoro-6-[7-methoxy-6-(1,3,4-oxadiazol-2-yl)quinolin-4-yl]oxypyridin-3-yl]-1-N-(4-fluorophenyl)cyclopropane-1,1-dicarboxamide]",10 to 100,10 to 100,> 300,10 to 100
"COc1cc2nccc(Oc3ncc(NC(=O)C4(C(=O)Nc5ccc(F)cc5)CC4)cc3Cl)c2cc1-c1nnco1 [Compound 68, 1-N′-[5-Chloro-6-[7-methoxy-6-(1,3,4-oxadiazol-2-yl)quinolin-4-yl]oxypyridin-3-yl]-1-N-(4-fluorophenyl)cyclopropane-1,1-dicarboxamide]",10 to 100,10 to 100,> 300,10 to 100
"COc1cc2nccc(Oc3ncc(NC(=O)C4(C(=O)Nc5ccc(F)cc5)CC4)cc3Cl)c2cc1-c1ncc[nH]1 [Compound 71, 1-N′-[5-Chloro-6-[6-(1H-imidazol-2-yl)-7-methoxyquinolin-4-yl]oxypyridin-3-yl]-1-N-(4-fluorophenyl)cyclopropane-1,1-dicarboxamide]",10 to 100,10 to 100,> 300,10 to 100
"COc1cc2nccc(Oc3ncc(NC(=O)C4(C(=O)Nc5ccc(F)cc5)CC4)cc3F)c2cc1-c1ncc[nH]1 [Compound 72, 1-N′-[5-Fluoro-6-[6-(1H-imidazol-2-yl)-7-methoxyquinolin-4-yl]oxypyridin-3-yl]-1-N-(4-fluorophenyl)cyclopropane-1,1-dicarboxamide]",10 to 100,≤ 10,> 300,10 to 100

# From US11673897B2, “Compounds for the treatment of kinase-dependent disorders” (Exelixis, Inc., priority 2018, dated 2023)
